Assays:
bedstraw = test: Test B pre/postemergence bedstraw; type: in vivo, Galium aparine
Summary of the method: (§1)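 Test chemicals in a non-phytotoxic solvent mixture with surfactant were sprayed preemergence onto planted seeds and postemergence onto plants 2 to 18 cm tall (1- to 4-leaf stage). After twelve to sixteen days in a greenhouse, injury was visually rated against untreated controls from 0 (no effect) to 10 (complete control).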

blackgrass = test: Test B pre/postemergence blackgrass; type: in vivo, Alopecurus myosuroides
Summary of the method: as §1

surinam grass = test: Test B pre/postemergence surinam grass; type: in vivo, Brachiaria decumbens
Summary of the method: as §1

cocklebur = test: Test B pre/postemergence cocklebur; type: in vivo, Xanthium strumarium
Summary of the method: as §1

corn = test: Test B pre/postemergence corn; type: in vivo, Zea mays
Summary of the method: as §1

crabgrass = test: Test B pre/postemergence crabgrass; type: in vivo, Digitaria sanguinalis
Summary of the method: as §1

giant foxtail = test: Test B pre/postemergence giant foxtail; type: in vivo, Setaria faberii
Summary of the method: as §1

morningglory = test: Test B pre/postemergence morningglory; type: in vivo, Ipomoea hederacea
Summary of the method: as §1

pigweed = test: Test B pre/postemergence pigweed; type: in vivo, Amaranthus retroflexus
Summary of the method: as §1

rape = test: Test B pre/postemergence rape; type: in vivo, Brassica napus
Summary of the method: as §1

soybean = test: Test B pre/postemergence soybean; type: in vivo, Glycine max
Summary of the method: as §1

sugar beet = test: Test B pre/postemergence sugar beet; type: in vivo, Beta vulgaris
Summary of the method: as §1

velvetleaf = test: Test B pre/postemergence velvetleaf; type: in vivo, Abutilon theophrasti
Summary of the method: as §1

wheat = test: Test B pre/postemergence wheat; type: in vivo, Triticum aestivum
Summary of the method: as §1

wild oat = test: Test B pre/postemergence wild oat; type: in vivo, Avena fatua
Summary of the method: as §1

purple nutsedge = test: Test B pre/postemergence purple nutsedge; type: in vivo, Cyperus rotundus
Summary of the method: as §1

[1] = Postemergence, Rate 62 g/ha, scale 0 to 10, 0 is no effect, 10 is complete control
[2] = Postemergence, Rate 125 g/ha, scale of 0 to 10 where 0 is no effect and 10 is complete control
[3] = Postemergence, Rate 500 g/ha, scale 0 (no effect) to 10 (complete control)
[4] = Preemergence, Rate 250 g/ha, scale 0 (no effect) to 10 (complete control)
[5] = Rate 62 g/ha, Preemergence, scale 0 to 10
[6] = Rate 125 g/ha, Preemergence, scale 0 to 10 (0 no effect, 10 complete control)
[7] = Rate 250 g/ha, Postemergence, scale 0 to 10, 0 is no effect, 10 is complete control
[8] = Rate 500 g/ha, Preemergence, scale 0 to 10 (0 no effect, 10 complete control)

CCOC(CC)n1c(=O)on(C(=O)N(c2ccc(Cl)cc2)C(C)C)c1=O (stereo not drawn) [Compound 772]
Plant response rating, Bedstraw (bedstraw; [1]): 0 | Bedstraw plant response rating (bedstraw; [2]): 0 | Bedstraw plant response rating (bedstraw; [3]): 0 | Bedstraw plant response rating (bedstraw; [4]): 0 | Bedstraw plant response rating (bedstraw; [5]): 0 | Bedstraw plant response rating (bedstraw; [6]): 0 | Bedstraw plant response rating (bedstraw; [7]): 0 | Bedstraw plant response rating (bedstraw; [8]): 0 | Plant response rating, Blackgrass (blackgrass; [1]): 0 | Blackgrass plant response rating (blackgrass; [2]): 0 | Blackgrass plant response rating (blackgrass; [3]): 0 | Blackgrass plant response rating (blackgrass; [4]): 0 | Blackgrass plant response rating (blackgrass; [5]): 0 | Blackgrass plant response rating (blackgrass; [6]): 0 | Blackgrass plant response rating (blackgrass; [7]): 0 | Blackgrass plant response rating (blackgrass; [8]): 0 | Plant response rating, B. signalgrass (surinam grass; [1]): 0 | B. signalgrass plant response rating (surinam grass; [2]): 0 | B. signalgrass plant response rating (surinam grass; [4]): 0 | B. signalgrass plant response rating (surinam grass; Rate 62 g/ha, Preemergence, scale 0 (no effect) to 10 (complete control)): 0 | B. signalgrass plant response rating (surinam grass; [6]): 0 | B. signalgrass plant response rating (surinam grass; [7]): 0 | B. signalgrass plant response rating (surinam grass; Rate 500 g/ha, Postemergence, scale 0 to 10, 0 is no effect, 10 is complete control): 0 | B. signalgrass plant response rating (surinam grass; [8]): 0 | Plant response rating, Cocklebur (cocklebur; [1]): 0 | Cocklebur plant response rating (cocklebur; [2]): 0 | Cocklebur plant response rating (cocklebur; [3]): 0 | Cocklebur plant response rating (cocklebur; [4]): 0 | Cocklebur plant response rating (cocklebur; [5]): 0 | Cocklebur plant response rating (cocklebur; [6]): 0 | Cocklebur plant response rating (cocklebur; [7]): 0 | Cocklebur plant response rating (cocklebur; [8]): 0 | Plant response rating, Corn (corn; [1]): 0 | Corn plant response rating (corn; [2]): 0 | Corn plant response rating (corn; [3]): 0 | Corn plant response rating (corn; [4]): 0 | Corn plant response rating (corn; [5]): 0 | Corn plant response rating (corn; [6]): 0 | Corn plant response rating (corn; [7]): 0 | Corn plant response rating (corn; [8]): 0 | Plant response rating, Crabgrass (crabgrass; [1]): 0 | Crabgrass plant response rating (crabgrass; [2]): 0 | Crabgrass plant response rating (crabgrass; [3]): 0 | Crabgrass plant response rating (crabgrass; [4]): 0 | Crabgrass plant response rating (crabgrass; [5]): 0 | Crabgrass plant response rating (crabgrass; [6]): 0 | Crabgrass plant response rating (crabgrass; [7]): 0 | Crabgrass plant response rating (crabgrass; [8]): 0 | Plant response rating, Giant foxtail (giant foxtail; [1]): 0 | Giant foxtail plant response rating (giant foxtail; [2]): 0 | Giant foxtail plant response rating (giant foxtail; [3]): 0 | Giant foxtail plant response rating (giant foxtail; [4]): 0 | Giant foxtail plant response rating (giant foxtail; [5]): 0 | Giant foxtail plant response rating (giant foxtail; [6]): 0 | Giant foxtail plant response rating (giant foxtail; [7]): 0 | Giant foxtail plant response rating (giant foxtail; [8]): 0 | Plant response rating, Morningglory (morningglory; [1]): 0 | Morningglory plant response rating (morningglory; [2]): 0 | Morningglory plant response rating (morningglory; [3]): 2 | Morningglory plant response rating (morningglory; [5]): 0 | Morningglory plant response rating (morningglory; [6]): 0 | Morningglory plant response rating (morningglory; [7]): 0 | Morningglory plant response rating (morningglory; [8]): 0 | Plant response rating, Redroot pigweed (pigweed; [1]): 0 | Redroot pigweed plant response rating (pigweed; [2]): 0 | Redroot pigweed plant response rating (pigweed; [3]): 0 | Redroot pigweed plant response rating (pigweed; [5]): 0 | Redroot pigweed plant response rating (pigweed; [6]): 0 | Redroot pigweed plant response rating (pigweed; [7]): 0 | Redroot pigweed plant response rating (pigweed; [8]): 0 | Plant response rating, Rape (rape; [1]): 0 | Rape plant response rating (rape; [2]): 0 | Rape plant response rating (rape; [3]): 0 | Rape plant response rating (rape; [5]): 0 | Rape plant response rating (rape; [6]): 0 | Rape plant response rating (rape; [7]): 0 | Rape plant response rating (rape; [8]): 0 | Plant response rating, Soybean (soybean; [1]): 0 | Soybean plant response rating (soybean; [3]): 0 | Soybean plant response rating (soybean; [5]): 0 | Soybean plant response rating (soybean; [6]): 0 | Soybean plant response rating (soybean; [7]): 0 | Soybean plant response rating (soybean; [8]): 0 | Plant response rating, Sugarbeets (sugar beet; [1]): 0 | Sugarbeets plant response rating (sugar beet; [3]): 0 | Sugarbeets plant response rating (sugar beet; [5]): 0 | Sugarbeets plant response rating (sugar beet; [6]): 0 | Sugarbeets plant response rating (sugar beet; [7]): 0 | Sugarbeets plant response rating (sugar beet; [8]): 0 | Plant response rating, Velvetleaf (velvetleaf; [1]): 0 | Velvetleaf plant response rating (velvetleaf; [3]): 0 | Velvetleaf plant response rating (velvetleaf; [5]): 0 | Velvetleaf plant response rating (velvetleaf; [6]): 0 | Velvetleaf plant response rating (velvetleaf; [7]): 0 | Velvetleaf plant response rating (velvetleaf; [8]): 0 | Plant response rating, Wheat (wheat; [1]): 0 | Wheat plant response rating (wheat; [3]): 0 | Wheat plant response rating (wheat; [5]): 0 | Wheat plant response rating (wheat; [6]): 0 | Wheat plant response rating (wheat; [7]): 0 | Wheat plant response rating (wheat; [8]): 0 | Plant response rating, Wild oats (wild oat; [1]): 0 | Wild oats plant response rating (wild oat; [3]): 0 | Wild oats plant response rating (wild oat; [5]): 0 | Wild oats plant response rating (wild oat; [6]): 0 | Wild oats plant response rating (wild oat; [7]): 0 | Wild oats plant response rating (wild oat; [8]): 0 | Plant response rating, Nutsedge (purple nutsedge; [1]): 0 | Nutsedge plant response rating (purple nutsedge; [2]): 0 | Nutsedge plant response rating (purple nutsedge; [3]): 0 | Nutsedge plant response rating (purple nutsedge; [5]): 0 | Nutsedge plant response rating (purple nutsedge; [6]): 0 | Nutsedge plant response rating (purple nutsedge; [7]): 0 | Nutsedge plant response rating (purple nutsedge; [8]): 0

From patent US6737383B1, “Herbicidal oxadiazolidines” (priority 1999, dated 2004)
